Reference: PMC10608878, “Synthesis and Antiproliferative Activity of 2,6-Disubstituted Imidazo[4,5-b]pyridines Prepared by Suzuki Cross Coupling” (Molecules, 2023)
Read-outs that look alike come from different tables or passages of the source.

Key:
[1] = test system: HL-60 acute myeloid leukemia cells; assay: Antiproliferative activity, HL-60 cells; type: cell-based, human; conditions: Homo sapiens, HL-60, 72 h, HL-60, 72 h incubation
Method: (§1) All prepared imidazo[4,5-b]pyridines were tested for their antiproliferative activity against the following cancer cell lines: LN-229—glioblastoma, Capan-1—pancreatic adenocarcinoma, HCT-116—colorectal carcinoma, NCI-H460—lung carcinoma, DND-41—acute lymphoblastic leukemia, HL-60—acute myeloid leukemia, K-562—chronic myeloid leukemia, and Z-138—non-Hodgkin lymphoma cancer cells. An overview of the results is presented in Table 2 as IC50 values (50% inhibitory concentration). An established antitumor drug, etoposide (ETO), was included for comparison.
(§2) For proliferation assays, the human cancer cell lines used in this manuscript, namely Capan-1, HCT-116, NCI-H460, LN-229, HL-60, K-562, and Z-138, were acquired from the American Type Culture Collection (ATCC, Manassas, VA, USA), while the DND-41 cell line was purchased from the Deutsche Sammlung von Mikroorganismen und Zellkulturen (DSMZ Leibniz-Institut, Braunschweig, Germany). Culture media were purchased from Gibco (Gibco Life Technologies, Merelbeke, Belgium) and supplemented with 10% fetal bovine serum (HyClone, Cytiva, Marlborough, MA, USA). Adherent cell lines LN-229, HCT-116, NCI-H460, and Capan-1 cells were seeded in 384-well tissue culture plates (Greiner, Kremsmünster, Austria) at a density between 500 and 1500 cells per well (500 cells per well for Capan-1, 1000 cells per well for LN-229 and HCT-116, and 1500 cells per well for NCI-H460). The cells were treated with seven different concentrations of the test compounds in a 5-fold dilution series ranging from 100 to 0.006 µM after overnight incubation. Suspension cell lines HL-60, K-562, Z-138, and DND-41 were seeded at densities ranging from 2500 to 5500 cells per well (2500 cells per well for HL-60, K-562, and Z-138, and 5500 cells per well for DND-41) in 384-well culture plates containing the test compounds at the same concentration points. All conditions were incubated for 72 h before measuring the cell viability by the CellTiter 96® AQueous Non-Radioactive Cell Proliferation Assay (Promega, Madison, WA, USA) according to the manufacturer’s instructions. After 3 h, absorbance of all conditions was measured at 490 nm using a SpectraMax Plus 384 (Molecular Devices, San Jose, CA, USA), and the OD values were used to calculate the 50% inhibitory concentration (IC50). Compounds were tested in two independent experiments.

[2] = test system: normal peripheral blood mononuclear cells (PBMC); assay: Toxicity in normal peripheral blood mononuclear cells; type: cell-based
Text: Figure 6 Toxicity of compounds 13 and 19 in normal cells.

[3] = test system: Capan-1 pancreatic adenocarcinoma cells; assay: Antiproliferative activity, Capan-1 cells; type: cell-based, human; conditions: Homo sapiens, CAPAN-1, 72 h, Capan-1, 72 h incubation
Method: as §1, §2

[4] = test system: HCT-116 colorectal carcinoma cells; assay: Antiproliferative activity, HCT-116 cells; type: cell-based, human; conditions: Homo sapiens, HCT-116, 72 h, HCT-116, 72 h incubation
Method: as §1, §2

[5] = test system: human cancer cell lines; assay: Antiproliferative activity, panel of human cancer cell lines; type: cell-based
Method: as §1, §2

[6] = test system: DND-41 acute lymphoblastic leukemia cells; assay: Antiproliferative activity, DND-41 cells; type: cell-based, human; conditions: Homo sapiens, DND41, 72 h, DND-41, 72 h incubation
Method: as §1, §2

[7] = test system: K-562 chronic myeloid leukemia cells; assay: Antiproliferative activity, K-562 cells; type: cell-based, human; conditions: Homo sapiens, K562, 72 h, K-562, 72 h incubation
Method: as §1, §2

[8] = test system: host cell lines; conditions: host cell lines of the antiviral assays
[9] = test system: Z-138 non-Hodgkin lymphoma cells; assay: Antiproliferative activity, Z-138 cells; type: cell-based, human; conditions: Homo sapiens, Z-138, 72 h, Z-138, 72 h incubation
Method: as §1, §2

[10] = test system: LN-229 glioblastoma cells; assay: Antiproliferative activity, LN-229 cells; type: cell-based, human; conditions: Homo sapiens, LN-229, 72 h, LN-229, 72 h incubation
Method: as §1, §2

[11] = test system: NCI-H460 lung carcinoma cells; assay: Antiproliferative activity, NCI-H460 cells; type: cell-based, human; conditions: Homo sapiens, NCI-H460, 72 h, NCI-H460, 72 h incubation
Method: as §1, §2

[12] = test system: human coronavirus HCoV-OC43; assay: Antiviral CPE assay, HCoV-OC43 in HEL 299; type: cell-based; conditions: HEL 299 host cells
[13] = test system: Semliki Forest virus (SFV); assay: Antiviral CPE assay, SFV in VeroE6; type: cell-based; conditions: VeroE6 host cells
[14] = test system: human coronavirus HCoV-229E; assay: organism not typed; type: cell-based, human coronavirus 229E; conditions: HEL 299 host cells; read-out: Antiviral Activity (EC50) HCoV 229E HEL 299
[15] = test system: yellow fever virus (YFV); assay: microbe, parasite or virus in culture; type: cell-based
[16] = test system: VeroE6 cells; conditions: read-out: Cytotoxicity (CC50) Vero E6; uninfected Vero E6 cells
[17] = test system: Sindbis virus (SINDV); assay: Antiviral CPE assay, SINDV in VeroE6; type: cell-based; conditions: VeroE6 host cells
[18] = test system: herpes simplex virus-1 (HSV-1 KOS); assay: Antiviral CPE assay, HSV-1 in HEL 299; type: cell-based; conditions: HEL 299 host cells
[19] = test system: HEL 299 cells; conditions: read-out: Cytotoxicity (CC50) HEL 299; uninfected HEL 299 cells
[20] = test system: Zika virus (ZIKV); assay: Antiviral CPE assay, ZIKV in VeroE6; type: cell-based; conditions: VeroE6 host cells
[21] = in vitro; conditions: human
[22] = in vitro; conditions: human; remark: listed apart in the source
[23] = test system: human coronavirus HCoV-NL63; assay: Antiviral CPE assay, HCoV-NL63 in Hep3B; type: cell-based; conditions: Hep3B host cells
[24] = test system: respiratory syncytial virus (RSV) A; assay: Antiviral CPE assay, RSV in Hep-2; type: cell-based; conditions: human respiratory syncytial virus; Hep-2 host cells
[25] = in vitro; conditions: human; remark: listed apart in the source
[26] = test system: NCI-H460 cells; assay: Cell cycle progression, NCI-H460 cells; type: cell-based, human
Text: (§3) Lastly, the effects of lead compound 19 on the cell cycle progression of three cancer cell lines, namely HEp-2, NCI-H460, and LN-229, were explored.
(§4) Figure 7 The effects of lead compound 19 on cell cycle progression of NCI-H460 (left), LN-229 (middle), and Hep-2 (right) cells.

[27] = test system: HEp-2 cells; assay: Cell cycle progression, HEp-2 cells; type: cell-based, human
Text: as §3, §4

[28] = test system: LN-229 cells; assay: Cell cycle progression, LN-229 cells; type: cell-based, human
Text: as §3, §4

[29] = in vitro; conditions: African green monkey
[30] = test system: influenza B (B/Ned/537/05); assay: Antiviral CPE assay, influenza B in MDCK; type: cell-based; conditions: Influenza B virus; MDCK host cells
[31] = in vitro; conditions: dog
[32] = test system: influenza A/H3N2 (A/HK/7/87); assay: Antiviral CPE assay, influenza A/H3N2 in MDCK; type: cell-based; conditions: Influenza A virus, MDCK host cells
[33] = test system: influenza A/H1N1 (A/Ned/378/05); assay: Antiviral CPE assay, influenza A/H1N1 in MDCK; type: cell-based; conditions: Influenza A virus, MDCK host cells
[34] = most/majority of the tested cancer cell lines, read-out: IC50 range against most of the tested cell lines

| Structure (SMILES) | IC50 [1] [µM] | Effect on viability of PBMC ([2]; 10 µM) | Effect on viability of PBMC ([2]; 100 µM (highest dose tested)) | IC50 [3] [µM] | IC50 [4] [µM] | IC50 [5, 34] [µM] | IC50 [6] [µM] | IC50 [7] [µM] | Cytotoxicity on host cell lines [8] | IC50 [9] [µM] | IC50 [10] [µM] | IC50 [11] [µM] | EC50 [14] [µM] | EC50 ([12]; Betacoronavirus 1, OC43) [µM] | CC50 [21] [µM] | CC50 [22] [µM] | EC50 [23] [µM] | EC50 ([18]; Human alphaherpesvirus 1) [µM] | EC50 [24] [µM] | CC50 [25] [µM] | further results |
| --- | --- | --- | --- | --- | --- | --- | --- | --- | --- | --- | --- | --- | --- | --- | --- | --- | --- | --- | --- | --- | --- |
| Oc1ccc(-c2cnc3[nH]c(-c4ccccc4)nc3c2)cc1 [Compound 13, 4-(2-phenyl-3H-imidazo [4,5-b]pyridin-6-yl)phenol] | 1.65 | little to no effect | negatively impacted the viability | 1.5 | 3.94 | 1.45 to 4.25 | 4.25 | 3.42 | cytotoxicity was observed on all host cell lines, with the exception of the non-cancerous HEL 229 cells | 1.87 | 4.1 | 4.25 | – | – | – | – | – | – | – | – | IC50 ([5]; Capan-1, HL-60 and Z-138 cell lines, read-out: IC50 range, particularly strong inhibition): 1.5 to 1.87 µM |
| CCOC(=O)[C@H]1O[C@@H]1C(=O)N[C@@H](CC(C)C)C(=O)NCCC(C)C [Compound E64d] | – | – | – | – | – | – | – | – | – | – | – | – | 2 | – | – | – | – | – | – | – | EC50 [12]: 3.9 µM; EC50 [13]: > 100 µM; EC50 ([15]; VeroE6 host cells, read-out: Antiviral Activity (EC50) YFV VeroE6): > 100 µM; CC50 [16]: > 100 µM; EC50 [17]: > 100 µM; EC50 [18]: > 100 µM; CC50 [19]: > 100 µM; EC50 [20]: 27.8 µM |
| CCC(CC)COC(=O)[C@H](C)N[P@](=O)(OC[C@H]1O[C@@](C#N)(c2ccc3c(N)ncnn23)[C@H](O)[C@@H]1O)Oc1ccccc1 [Remdesivir, remdesivir] | – | – | – | – | – | – | – | – | – | – | – | – | 0.2 | 0.06 | > 10 | > 10 | 0.2 | > 10 | 0.006 | > 10 | – |
| Cn1c(-c2ccccc2)nc2cc(-c3ccc(C(N)=O)cc3)cnc21 [Compound 22, 4-(3-methyl-2-phenyl-3H-imidazo[4,5-b]pyridin-6-yl)benzamide] | 70.9 | – | – | > 100 | > 100 | – | > 100 | > 100 | – | 58.1 | > 100 | > 100 | – | – | – | – | – | – | – | – | melting point: > 300 °C |
| Cn1c(-c2ccccc2)nc2cc(-c3ccc(O)cc3)cnc21 [Compound 19, 4-(3-methyl-2-phenyl-3H-imidazo [4,5-b]pyridin-6-yl)phenol] | 3.3 | little to no effect | negatively impacted the viability | 1.9 | 2.32 | 1.45 to 4.25 | 1.57 | 1.5 | cytotoxicity was observed on all host cell lines, with the exception of the non-cancerous HEL 229 cells | 1.45 | 1.77 | 2.83 | – | – | – | – | – | – | – | – | Effect on cell cycle progression [26]: strong accumulation of cells in the G2/M phase; IC50 ([5]; Capan-1, LN-229, DND-41, K-562 and Z-138 cell lines, read-out: IC50 range, lowest inhibitory concentrations): 1.45 to 1.9 µM; Effect on cell cycle progression [27]: strong accumulation of cells in the G2/M phase; Effect on cell cycle progression [28]: strong accumulation of cells in the G2/M phase |
| N#Cc1ccc(-c2cnc3[nH]c(-c4ccccc4)nc3c2)cc1 [Compound 15, 4-(2-phenyl-3H-imidazo [4,5-b]pyridin-6-yl)benzonitrile] | 37.2 | – | – | 10.8 | > 100 | – | > 100 | > 100 | – | 34.4 | 79.2 | > 100 | 31.3 | > 50 | > 50 | > 50 | > 50 | > 50 | > 50 | > 50 | CC50 [29]: > 50 µM; EC50 ([13]; Semliki Forest virus, Vero C1008): > 50 µM; EC50 [30]: 34.5 µM; EC50 ([15]; Yellow fever virus, Vero C1008, read-out: Antiviral Activity (EC50) YFV VeroE6): > 50 µM; CC50 [31]: > 50 µM; EC50 ([17]; Sindbis virus, Vero C1008): > 50 µM; EC50 [32]: 39.5 µM; EC50 [33]: 33.5 µM; EC50 ([20]; Zika virus, Vero C1008): > 50 µM |
